How the values were obtained:
[1] = Shake flask solubility of CBZM in DMSO aqueous solutions and pure solvents; assay type: physicochemical; details: for Experimental mole fraction solubility (xe): 101.1 kPa
Protocol: A digital analytical balance (Mettler Toledo, Greifensee, Switzerland) with a sensitivity of 0.10 mg was used to measure the mass of each cosolvent mixture. A series of DMSO aqueous solutions (m = 0.10–0.90), were investigated. Three replications of each cosolvent mixture were taken. CBZM’s solubility values in numerous DMSO aqueous solutions (m = 0.0–1.0) and pure solvents were determined utilizing a shake flask methodology at five distinct temperature and fixed atmospheric pressure. Essentially, extra CBZM crystals were mixed with known amounts of each cosolvent mixture and neat solvents in triplicates. All the mixtures were vortexed for about 5 min. To achieve equilibrium, the resulting mixes were transferred to a WiseBath WSB Shaking Water Bath (Model WSB-18/30/-45, Daihan Scientific Co. Ltd., Seoul, Republic of Korea) for 72 h at 100 rpm for continuous shaking. After the samples reached equilibrium, they were removed from the shaker and centrifuged at 5000 rpm for 30 min at 298.2 K. The uncertainty in water bath temperature was recorded as 0.15 K. The equilibrium time of 72 h was optimized by preliminary experiments. Under preliminary experiments, CBZM solubility was measured at 24, 48, […], 72, and 96 h. […] After the supernatants were separated and diluted with mobile phase (if needed), the CBZM content was evaluated at 244 nm using a previously described HPLC technique. By using their standard formulae found in the literature, CBZM xe values were obtained.

[2] = design: method as in earlier work; details: all aqueous solutions, including H2O; cited from earlier work
[3] = design: method as in doi:10.1016/j.molliq.2020.115146; details: cited from earlier work

COc1cc2nccc(Oc3ccc(NC(=O)C4(C(=O)Nc5ccc(F)cc5)CC4)cc3)c2cc1OC [CBZM, Cabozantinib malate]
Experimental mole fraction solubility (xe) ([1]; DMSO mass fraction m = 0.0, T = 298.2 K): 2.24 × 10^−7 mole fraction | Experimental mole fraction solubility (xe) ([1]; DMSO mass fraction m = 0.0, T = 303.2 K): 3.37 × 10^−7 mole fraction | Experimental mole fraction solubility (xe) ([1]; DMSO mass fraction m = 0.0, T = 308.2 K): 4.85 × 10^−7 mole fraction | Experimental mole fraction solubility (xe) ([1]; DMSO mass fraction m = 0.0, T = 313.2 K): 6.55 × 10^−7 mole fraction | Experimental mole fraction solubility (xe) ([1]; DMSO mass fraction m = 0.0, T = 318.2 K): 8.53 × 10^−7 mole fraction | Experimental mole fraction solubility (xe) ([1]; DMSO mass fraction m = 0.1, T = 298.2 K): 7.46 × 10^−7 mole fraction | Experimental mole fraction solubility (xe) ([1]; DMSO mass fraction m = 0.1, T = 303.2 K): 1.12 × 10^−6 mole fraction | Experimental mole fraction solubility (xe) ([1]; DMSO mass fraction m = 0.1, T = 308.2 K): 1.52 × 10^−6 mole fraction | Experimental mole fraction solubility (xe) ([1]; DMSO mass fraction m = 0.1, T = 313.2 K): 2.01 × 10^−6 mole fraction | Experimental mole fraction solubility (xe) ([1]; DMSO mass fraction m = 0.1, T = 318.2 K): 2.55 × 10^−6 mole fraction | Experimental mole fraction solubility (xe) ([1]; DMSO mass fraction m = 0.2, T = 298.2 K): 2.48 × 10^−6 mole fraction | Experimental mole fraction solubility (xe) ([1]; DMSO mass fraction m = 0.2, T = 303.2 K): 3.48 × 10^−6 mole fraction | Experimental mole fraction solubility (xe) ([1]; DMSO mass fraction m = 0.2, T = 308.2 K): 4.69 × 10^−6 mole fraction | Experimental mole fraction solubility (xe) ([1]; DMSO mass fraction m = 0.2, T = 313.2 K): 6.00 × 10^−6 mole fraction | Experimental mole fraction solubility (xe) ([1]; DMSO mass fraction m = 0.2, T = 318.2 K): 7.57 × 10^−6 mole fraction | Experimental mole fraction solubility (xe) ([1]; DMSO mass fraction m = 0.3, T = 298.2 K): 8.00 × 10^−6 mole fraction | Experimental mole fraction solubility (xe) ([1]; DMSO mass fraction m = 0.3, T = 303.2 K): 1.11 × 10^−5 mole fraction | Experimental mole fraction solubility (xe) ([1]; DMSO mass fraction m = 0.3, T = 308.2 K): 1.46 × 10^−5 mole fraction | Experimental mole fraction solubility (xe) ([1]; DMSO mass fraction m = 0.3, T = 313.2 K): 1.83 × 10^−5 mole fraction | Experimental mole fraction solubility (xe) ([1]; DMSO mass fraction m = 0.3, T = 318.2 K): 2.25 × 10^−5 mole fraction | Experimental mole fraction solubility (xe) ([1]; DMSO mass fraction m = 0.4, T = 298.2 K): 2.66 × 10^−5 mole fraction | Experimental mole fraction solubility (xe) ([1]; DMSO mass fraction m = 0.4, T = 303.2 K): 3.48 × 10^−5 mole fraction | Experimental mole fraction solubility (xe) ([1]; DMSO mass fraction m = 0.4, T = 308.2 K): 4.42 × 10^−5 mole fraction | Experimental mole fraction solubility (xe) ([1]; DMSO mass fraction m = 0.4, T = 313.2 K): 5.49 × 10^−5 mole fraction | Experimental mole fraction solubility (xe) ([1]; DMSO mass fraction m = 0.4, T = 318.2 K): 6.59 × 10^−5 mole fraction | Experimental mole fraction solubility (xe) ([1]; DMSO mass fraction m = 0.5, T = 298.2 K): 8.61 × 10^−5 mole fraction | Experimental mole fraction solubility (xe) ([1]; DMSO mass fraction m = 0.5, T = 303.2 K): 1.12 × 10^−4 mole fraction | Experimental mole fraction solubility (xe) ([1]; DMSO mass fraction m = 0.5, T = 308.2 K): 1.38 × 10^−4 mole fraction | Experimental mole fraction solubility (xe) ([1]; DMSO mass fraction m = 0.5, T = 313.2 K): 1.69 × 10^−4 mole fraction | Experimental mole fraction solubility (xe) ([1]; DMSO mass fraction m = 0.5, T = 318.2 K): 1.98 × 10^−4 mole fraction | Experimental mole fraction solubility (xe) ([1]; DMSO mass fraction m = 0.6, T = 303.2 K): 3.47 × 10^−4 mole fraction | Experimental mole fraction solubility (xe) ([1]; DMSO mass fraction m = 0.6, T = 308.2 K): 4.21 × 10^−4 mole fraction | Experimental mole fraction solubility (xe) ([1]; DMSO mass fraction m = 0.6, T = 313.2 K): 4.95 × 10^−4 mole fraction | Experimental mole fraction solubility (xe) ([1]; DMSO mass fraction m = 0.6, T = 318.2 K): 5.79 × 10^−4 mole fraction | Experimental mole fraction solubility (xe) ([1]; DMSO mass fraction m = 0.7, T = 298.2 K): 9.33 × 10^−4 mole fraction | Experimental mole fraction solubility (xe) ([1]; DMSO mass fraction m = 0.7, T = 303.2 K): 1.12 × 10^−3 mole fraction | Experimental mole fraction solubility (xe) ([1]; DMSO mass fraction m = 0.7, T = 308.2 K): 1.31 × 10^−3 mole fraction | Experimental mole fraction solubility (xe) ([1]; DMSO mass fraction m = 0.7, T = 313.2 K): 1.53 × 10^−3 mole fraction | Experimental mole fraction solubility (xe) ([1]; DMSO mass fraction m = 0.7, T = 318.2 K): 1.72 × 10^−3 mole fraction | Experimental mole fraction solubility (xe) ([1]; DMSO mass fraction m = 0.8, T = 298.2 K): 3.09 × 10^−3 mole fraction | Experimental mole fraction solubility (xe) ([1]; DMSO mass fraction m = 0.8, T = 303.2 K): 3.53 × 10^−3 mole fraction | Experimental mole fraction solubility (xe) ([1]; DMSO mass fraction m = 0.8, T = 308.2 K): 3.99 × 10^−3 mole fraction | Experimental mole fraction solubility (xe) ([1]; DMSO mass fraction m = 0.8, T = 313.2 K): 4.55 × 10^−3 mole fraction | Experimental mole fraction solubility (xe) ([1]; DMSO mass fraction m = 0.8, T = 318.2 K): 5.04 × 10^−3 mole fraction | Experimental mole fraction solubility (xe) ([1]; DMSO mass fraction m = 0.9, T = 298.2 K): 1.07 × 10^−2 mole fraction | Experimental mole fraction solubility (xe) ([1]; DMSO mass fraction m = 0.9, T = 303.2 K): 1.15 × 10^−2 mole fraction | Experimental mole fraction solubility (xe) ([1]; DMSO mass fraction m = 0.9, T = 308.2 K): 1.26 × 10^−2 mole fraction | Experimental mole fraction solubility (xe) ([1]; DMSO mass fraction m = 0.9, T = 313.2 K): 1.38 × 10^−2 mole fraction | Experimental mole fraction solubility (xe) ([1]; DMSO mass fraction m = 0.9, T = 318.2 K): 1.52 × 10^−2 mole fraction | Experimental mole fraction solubility (xe) ([1]; DMSO mass fraction m = 1.0, T = 298.2 K): 3.29 × 10^−2 mole fraction | Experimental mole fraction solubility (xe) ([1]; DMSO mass fraction m = 1.0, T = 303.2 K): 3.50 × 10^−2 mole fraction | Experimental mole fraction solubility (xe) ([1]; DMSO mass fraction m = 1.0, T = 308.2 K): 3.78 × 10^−2 mole fraction | Experimental mole fraction solubility (xe) ([1]; DMSO mass fraction m = 1.0, T = 313.2 K): 4.02 × 10^−2 mole fraction | Experimental mole fraction solubility (xe) ([1]; DMSO mass fraction m = 1.0, T = 318.2 K): 4.38 × 10^−2 mole fraction | Solubility classification in DMSO ([1]; neat DMSO, 298.2–318.2 K): freely soluble | Solubility classification in H2O ([1]; neat H2O, 298.2–318.2 K): practically insoluble | Solubility in aqueous solutions [2]: nearly insoluble | Total HSP (δt) [3]: 25.50 MPa^1/2

— publication PMC10707982, “Solubility and Thermodynamics Data of Cabozantinib Malate in Various Aqueous Solutions of Dimethyl Sulfoxide at Different Temperatures” (Molecules, 2023)
